Laboratory results taken from patent publication US8455475B2 (Gruenenthal GmbH, priority 2009, dated 2013).

Each compound was assayed against T1, rat B1R (bradykinin receptor 1) (Rattus norvegicus, UniProt P97583) (assay: FLIPR Ca2+ assay (Fluo-4) on CHO K1 cells stably transfected with the B1R gene of the rat (rB1R cells): % inhibition at 10 μM / IC50, agonist Des-Arg9-bradykinin). Conditions: CHO-K1, rat B1R.
T1 construct: expressed in transfected cells; host or cells: CHO K1 cells
T1 sequence (P97583 1-337): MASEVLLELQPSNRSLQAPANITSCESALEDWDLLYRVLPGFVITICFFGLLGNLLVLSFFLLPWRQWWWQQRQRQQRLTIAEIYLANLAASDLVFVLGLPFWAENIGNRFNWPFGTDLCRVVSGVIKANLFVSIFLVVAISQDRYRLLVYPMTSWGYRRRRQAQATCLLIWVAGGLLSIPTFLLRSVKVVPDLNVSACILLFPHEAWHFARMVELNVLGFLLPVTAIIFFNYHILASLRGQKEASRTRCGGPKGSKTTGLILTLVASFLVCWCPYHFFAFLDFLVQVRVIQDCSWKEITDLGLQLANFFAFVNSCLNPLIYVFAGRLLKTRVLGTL
Assay type: cell-based
Summary of the method: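 Using a two-addition FLIPR protocol, compound (10 μM for % values; concentration series for IC50) was preincubated 10–20 min with Fluo-4-loaded B1R-expressing CHO K1 cells before EC80 agonist challenge. Suppression of Ca2+ inflow, read as peak fluorescence, is expressed relative to maximum achievable inhibition; duplicate/triplicate, ≥2 independent experiments.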

| Structure (SMILES) | inhibition at 10 µM |
| --- | --- |
| CN(C(=O)c1ccccc1Cl)C1CCc2ccc(C(=O)N3CCC4(CCN(Cc5cccc(C#N)c5)CC4)C3)cc21 (centres unmarked) [IND_CC-572, 2-Chloro-N-[6-[8-[(3-cyano-phenyl)-methyl]-2,8-diazaspiro[4.5]decane-2-carbonyl]-2,3-dihydro-1H-inden-1-yl]-N-methyl-benzamide] | 80% |
| COc1ccc(CN2CCC3(CC2)CCN(C(=O)c2ccc4c(c2)C(N(C(=O)c2ccccc2Cl)C2CC2)CC4)C3)cc1F (centres unmarked) [IND_CC-524, 2-Chloro-N-cyclopropyl-N-[6-[8-[(3-fluoro-4-methoxy-phenyl)-methyl]-2,8-diazaspiro[4.5]decane-2-carbonyl]-2,3-dihydro-1H-inden-1-yl]-benzamide] | 62% |
| O=C(NC1CCc2ccc(C(=O)N3CCC4(CCN(CCc5ccccc5)CC4)CC3)cc21)c1cc(C(F)(F)F)ccc1Cl (centres unmarked) [IND_CC-701, 2-Chloro-N-[6-(9-phenethyl-3,9-diazaspiro[5.5]undecane-3-carbonyl)-2,3-dihydro-1H-inden-1-yl]-5-(trifluoromethyl)-benzamide] | 96% |
| O=C(c1ccc2c(c1)C(N(C(=O)c1ccccc1Cl)C1CC1)CC2)N1CCC2(CCN(C(=O)C3CC3)CC2)C1 (centres unmarked) [IND_CC-603, 2-Chloro-N-[6-[8-(cyclopropanecarbonyl)-2,8-diazaspiro[4.5]decane-2-carbonyl]-2,3-dihydro-1H-inden-1-yl]-N-cyclopropyl-benzamide] | 75% |
| Cn1cccc1CN1CCC2(CC1)CCN(C(=O)c1ccc3c(c1)C(NC(=O)c1cc(C(F)(F)F)ccc1Cl)CC3)CC2 (centres unmarked) [IND_CC-643, 2-Chloro-N-[6-[9-[(1-methyl-1H-pyrrol-2-yl)-methyl]-3,9-diazaspiro[5.5]-undecane-3-carbonyl]-2,3-dihydro-1H-inden-1-yl]-5-(trifluoromethyl)benzamide] | 78% |
| O=C(NC1CCc2ccc(C(=O)N3CCC4(CCN(Cc5csnn5)CC4)C3)cc21)c1ccccc1Cl (centres unmarked) [IND_CC-555, 2-Chloro-N-[6-[8-([1,2,3]thiadiazol-4-yl-methyl)-2,8-diazaspiro[4.5]decane-2-carbonyl]-2,3-dihydro-1H-inden-1-yl]-benzamide] | 91% |
| O=C(NC1CCc2ccc(C(=O)N3CCC4(CCN(c5ccncc5)CC4)C3)cc21)C1CC1 (centres unmarked) [IND_CC-370, N-[6-(8-Pyridin-4-yl-2,8-diazaspiro[4.5]decane-2-carbonyl)-2,3-dihydro-1H-inden-1-yl]-cyclopropanecarboxylic acid amide] | 100% |
| CCCC(=O)NC1CCc2ccc(C(=O)N3CCC4(CCN(c5ccncc5)CC4)C3)cc21 (centres unmarked) [IND_CC-411, N-[6-(8-Pyridin-4-yl-2,8-diazaspiro[4.5]decane-2-carbonyl)-2,3-dihydro-1H-inden-1-yl]-butyramide] | 101% |
| O=C(NC1CCc2ccc(C(=O)N3CCC4(CCN(CCCc5ccc(F)cc5)CC4)CC3)cc21)c1cccc(Cl)c1Cl (centres unmarked) [IND_CC-760, 2,3-Dichloro-N-[6-[9-[3-(4-fluorophenyl)-propyl]-3,9-diazaspiro[5.5]undecane-3-carbonyl]-2,3-dihydro-1H-inden-1-yl]-benzamide] | 93% |
| O=C(NC1CCc2ccc(C(=O)N3CCC4(CCN(Cc5ccc[nH]5)CC4)CC3)cc21)c1cc(Cl)ccc1F (centres unmarked) [IND_CC-624, 5-Chloro-2-fluoro-N-[6-[9-(1H-pyrrol-2-yl-methyl)-3,9-diazaspiro[5.5]undecane-3-carbonyl]-2,3-dihydro-1H-inden-1-yl]-benzamide] | 62% |
| O=C(NC1CCc2ccc(C(=O)N3CCC4(CCN(CCc5ccccc5)CC4)CC3)cc21)c1cccc(Cl)c1Cl (centres unmarked) [IND_CC-758, 2,3-Dichloro-N-[6-(9-phenethyl-3,9-diazaspiro[5.5]undecane-3-carbonyl)-2,3-dihydro-1H-inden-1-yl]-benzamide] | 86% |

Next, values leading:

| inhibition at 10 µM | Structure (SMILES) |
| --- | --- |
| 74% | Cc1cccc(Cl)c1C(=O)NC1CCc2ccc(C(=O)N3CCC4(CCN(Cc5cnc(N(C)C)nc5)CC4)C3)cc21 (centres unmarked) [IND_CC-763, 2-Chloro-N-[6-[8-[(2-dimethylamino-pyrimidin-5-yl)-methyl]-2,8-diazaspiro-[4.5]decane-2-carbonyl]-2,3-dihydro-1H-inden-1-yl]-6-methyl-benzamide] |
| 58% | Cc1nc(CN2CCC3(CC2)CCN(C(=O)c2ccc4c(c2)C(NC(=O)c2c(C)cccc2Cl)CC4)C3)c[nH]1 (centres unmarked) [IND_CC-728, 2-Chloro-6-methyl-N-[6-[8-[(2-methyl-1H-imidazol-4-yl)-methyl]-2,8-diazaspiro[4.5]decane-2-carbonyl]-2,3-dihydro-1H-inden-1-yl]-benzamide] |
| 78% | O=C(NC1CCc2ccc(C(=O)N3CCC4(CCN(C(=O)c5ccc(F)cc5Cl)CC4)C3)cc21)c1ccccc1Cl (centres unmarked) [IND_CC-575, 2-Chloro-N-[6-[8-(2-chloro-4-fluoro-benzoyl)-2,8-diazaspiro[4.5]decane-2-carbonyl]-2,3-dihydro-1H-inden-1-yl]-benzamide] |
| 51% | N#Cc1ccc(CN2CCC3(CC2)CCN(C(=O)c2ccc4c(c2)C(NC(=O)c2cc(C(F)(F)F)ccc2Cl)CC4)C3)cc1 (centres unmarked) [IND_CC-658, 2-Chloro-N-[6-[8-[(4-cyano-phenyl)-methyl]-2,8-diazaspiro[4.5]decane-2-carbonyl]-2,3-dihydro-1H-inden-1-yl]-5-(trifluoromethyl)-benzamide] |
| 102% | Cc1ccc(C(=O)NC2CCc3ccc(C(=O)N4CCC5(CCN(c6ccncc6)CC5)C4)cc32)c(F)c1 (centres unmarked) [IND_CC-319, 2-Fluoro-4-methyl-N-[6-(8-pyridin-4-yl-2,8-diazaspiro[4.5]decane-2-carbonyl)-2,3-dihydro-1H-inden-1-yl]-benzamide] |
| 62% | O=C(c1ccc2c(c1)C(N(C(=O)c1ccccc1Cl)C1CC1)CC2)N1CCC2(CCN(Cc3ccc(F)cc3Cl)CC2)C1 (centres unmarked) [IND_CC-537, 2-Chloro-N-[6-[8-[(2-chloro-4-fluoro-phenyl)-methyl]-2,8-diazaspiro[4.5]-decane-2-carbonyl]-2,3-dihydro-1H-inden-1-yl]-N-cyclopropyl-benzamide] |
| 104% | Cn1nnc2cc(CN3CCC4(CC3)CCN(C(=O)c3ccc5c(c3)C(NC(=O)c3cccc(Cl)c3Cl)CC5)CC4)ccc21 (centres unmarked) [IND_CC-756, 2,3-Dichloro-N-[6-[9-[(1-methyl-1H-benzotriazol-5-yl)-methyl]-3,9-diazaspiro[5.5]undecane-3-carbonyl]-2,3-dihydro-1H-inden-1-yl]-benzamide] |
| 69% | O=C(c1ccc2c(c1)C(NS(=O)(=O)Cc1cccc(Cl)c1)CC2)N1CCC2(CCN(c3ccncc3)CC2)C1 (centres unmarked) [IND_CC-360, 1-(3-Chlorophenyl)-N-[6-(8-pyridin-4-yl-2,8-diazaspiro[4.5]decane-2-carbonyl)-2,3-dihydro-1H-inden-1-yl]-methanesulfonic acid amide] |
| 104% | O=C(NC1CCc2ccc(C(=O)N3CCC4(CC3)CCN(c3ccc(C(F)(F)F)cc3)CC4)cc21)c1cc(F)c(F)cc1Cl (centres unmarked) [IND_CC-230, 2-Chloro-4,5-difluoro-N-[6-[9-[4-(trifluoromethyl)-phenyl]-3,9-diazaspiro[5.5]undecane-3-carbonyl]-2,3-dihydro-1H-inden-1-yl]-benzamide] |
| 88% | N#Cc1ccccc1CN1CCC2(CC1)CCN(C(=O)c1ccc3c(c1)C(NC(=O)c1c(F)cccc1Cl)CC3)C2 (centres unmarked) [IND_CC-740, 2-Chloro-N-[6-[8-[(2-cyano-phenyl)-methyl]-2,8-diazaspiro[4.5]decane-2-carbonyl]-2,3-dihydro-1H-inden-1-yl]-6-fluoro-benzamide] |
| 103% | N#Cc1cc(S(=O)(=O)N2CCC3(CCN(C(=O)c4ccc5c(c4)C(NC(=O)c4ccccc4Cl)CC5)CC3)CC2)ccc1F (centres unmarked) [IND_CC-610, 2-Chloro-N-[6-[9-[(3-cyano-4-fluoro-phenyl)sulfonyl]-3,9-diazaspiro[5.5]undecane-3-carbonyl]-2,3-dihydro-1H-inden-1-yl]-benzamide] |
| 55% | CN(C(=O)c1ccccc1Cl)C1CCc2ccc(C(=O)N3CCC4(CCN(Cc5ccc(F)cc5F)CC4)C3)cc21 (centres unmarked) [IND_CC-551, 2-Chloro-N-[6-[8-[(2,4-difluoro-phenyl)-methyl]-2,8-diazaspiro[4.5]decane-2-carbonyl]-2,3-dihydro-1H-inden-1-yl]-N-methyl-benzamide] |
| 107% | COc1ccc(C(=O)NC2CCc3ccc(C(=O)N4CCC5(CC4)CCN(c4ccncc4)CC5)cc32)c(F)c1 (centres unmarked) [IND_CC-297, 2-Fluoro-4-methoxy-N-[6-(9-pyridin-4-yl-3,9-diazaspiro[5.5]undecane-3-carbonyl)-2,3-dihydro-1H-inden-1-yl]-benzamide] |
| 52% | CCn1cc(CN2CCC3(CC2)CCN(C(=O)c2ccc4c(c2)C(NC(=O)c2c(F)cccc2Cl)CC4)C3)c(C)n1 (centres unmarked) [IND_CC-772, 2-Chloro-N-[6-[8-[(1-ethyl-3-methyl-1H-pyrazol-4-yl)-methyl]-2,8-diazaspiro-[4.5]decane-2-carbonyl]-2,3-dihydro-1H-inden-1-yl]-6-fluoro-benzamide] |
| 104% | O=C(NC1CCc2ccc(C(=O)N3CCC4(CC3)CCN(c3ccncc3)C4)cc21)C1CCCCC1 (centres unmarked) [IND_CC-366, N-[6-(2-Pyridin-4-yl-2,8-diazaspiro[4.5]decane-8-carbonyl)-2,3-dihydro-1H-inden-1-yl]-cyclohexanecarboxylic acid amide] |
